Our source for the EC50 and IC50 values is paper PMC9273935, “Cooperative Binding of Substrate and Ions Drives Forward Cycling of the Human Creatine Transporter-1” (Frontiers in Physiology, 2022).

The target of assay [1] is T1, human creatine transporter-1 (CRT-1, SLC6A8), C-terminally YFP-tagged (Homo sapiens, UniProt P48029).
T1 construct: full-length cDNA in pEYFP-N1, C-terminal YFP tag, transiently expressed in HEK293 cells; oligomeric state not known
T1 sequence (P48029 1-635): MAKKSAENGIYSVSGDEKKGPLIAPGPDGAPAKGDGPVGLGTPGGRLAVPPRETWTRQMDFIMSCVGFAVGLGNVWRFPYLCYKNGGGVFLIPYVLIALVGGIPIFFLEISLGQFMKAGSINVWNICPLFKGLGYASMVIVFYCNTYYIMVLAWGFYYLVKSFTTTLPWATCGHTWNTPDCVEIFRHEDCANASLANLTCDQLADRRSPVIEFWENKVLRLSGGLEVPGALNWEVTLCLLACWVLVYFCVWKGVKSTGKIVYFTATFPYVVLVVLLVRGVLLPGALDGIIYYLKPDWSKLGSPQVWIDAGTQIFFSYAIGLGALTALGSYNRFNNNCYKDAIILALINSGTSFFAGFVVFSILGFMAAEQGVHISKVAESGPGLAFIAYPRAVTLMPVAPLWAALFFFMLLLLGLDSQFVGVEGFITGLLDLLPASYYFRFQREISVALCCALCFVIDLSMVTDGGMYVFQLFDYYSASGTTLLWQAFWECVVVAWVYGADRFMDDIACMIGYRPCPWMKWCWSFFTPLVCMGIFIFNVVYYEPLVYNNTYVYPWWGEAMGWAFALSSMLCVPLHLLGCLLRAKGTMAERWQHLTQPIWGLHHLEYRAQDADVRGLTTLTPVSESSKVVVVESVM
Nature of the assay: whole-cell patch clamp, substrate-induced transport current in transfected HEK293 cells. Format: cell-based.

In assay [2] the target is T1, human creatine transporter-1 (CRT-1, SLC6A8), C-terminally YFP-tagged. The assay can be described thus: inhibition of [3H]creatine uptake in transfected HEK293 cells. Format: cell-based.

As to `NC1=NCC(C(=O)O)CN1` (centres unmarked) [ATPCA, 2-amino-1,4,5,6-tetrahydropyrimidine-5-carboxylic acid], the concentration giving a half-maximal response (EC50) in assay [1] stood at 103 ± 4 µM. The IC50 in assay [2] was 105 ± 6.7 µM.

In assay [1], `CN(CC(=O)O)C(=N)N` [creatine] gave an EC50 of 34.8 ± 1.9 µM. The compound further yielded an IC50 in assay [2] of 48.4 ± 7 µM.

In turn, `NC1=NCCN1CC(=O)O` [cyclocreatine] registered an EC50 in assay [1] of 162 ± 8.49 µM. The IC50 in assay [2] was 167 ± 9.9 µM.

`N=C(N)NCCC(=O)O` [β-guanidinopropionic acid] showed an EC50 in assay [1] of 13.2 ± 0.73 µM. Moreover, in assay [2], the 50% inhibitory concentration (IC50) was 18.8 ± 1.1 µM.
